# Source: patent publication US4968819A, “Process for the preparation of chromene derivatives” (Alkaloida Vegyeszeti Gyar, priority 1983, dated 1990)
# Like-named read-outs stand apart in the source and are kept apart here.
# Tests used:
# Assay type in all cases: in vivo
# Caenorhabditis elegans = Caenorhabditis elegans test (treated NGM agar plate, young adults)
# Method: (5) Caenorhabditis elegans 0.5 ml of the acetonous solution of the test compound is applied onto a NGM agar plate free from bacteria in a Petri dish. After the acetone has dried 25-30 young adults are placed on the plate. After 24 hours the surviving and killed insects are counted.
# [1] = test system: domestic fly (Musca domestica); experiment: Domestic fly test (larvae in treated nutrient medium); conditions: 0.1% related to milk, 0.05% related to total nutrient medium
# Method: The fly larvae are grown on a nutrient medium of the following composition: 2 ml of milk; 2 ml of water; 2 g of wheat bran; 0.1 ml of saturated alcoholic nipagin solution.
# The nutrient medium is filled into cylindrical glass vials (30×100 mm) and 25 fly larvae are raised in each vial. The test compound is dissolved in milk; the end concentration (related to milk) amounts to 0.1% which corresponds to 0.05% (related to the total nutrient medium). The solution of the active ingredient is admixed with the nutrient medium whereupon […] of domestic fly larvae of the I. stage are placed into each vial and the vials are closed with a hard cotton-wool stopper. The nymphs emerging from the larvae are collected in each vial, counted and kept in a Petri dish (diameter 25 mm) until flies hatch from the nymphs. The hatched flies are counted.
# [2] = test system: cabbage butterfly (Pieris brassicae); experiment: Cabbage butterfly test (sprayed cabbage seedlings); conditions: 50 EC; for pest or weed control at 0.1 % / pest or weed control at 0.01 %: Pieris brassicae, read-out: Killing rate of larvae
# Method: From the 50 EC of the test compound a diluted series is prepared with water and the host seedlings (cabbage) are sprayed with this composition until the spray runs down. The spray is allowed to dry whereupon 20 young larvae of the II. stage are placed on each treated plant and the seedlings are kept under so-called "long-day" illumination (18 hours of illumination and 6 hours of darkness). The nibbled plants are replaced by similarly sprayed plants if necessary. The killing rate of the insects, the growth rate of the larvae and the morphological deformations of the surviving nymphs and adults are registered.
# In the 50 EC compositions the concentration of compounds 23 and 25 amounts to 0.01% and that of the other compounds to 0.1%.
# [3] = test system: tomato root gall nematode (Meloidogyne incognita); experiment: Tomato root gall nematode test (II. stage infective larvae, treated NGM agar plate); conditions: 72 hours; for mortality at 200 µg/mL / mortality at 400 µg/mL: Meloidogyne incognita
# Method: (6) Root gall nematode The test is carried out on II. stage infective larvae, which are collected from the root of tomato plant, placed on a filter and incubated in sterile water at 25° C. The hatched larvae are collected every 24 hours and immediately placed onto the treated nutrient medium. As nutrient medium NGM agar plate free from bacterial is used. 0.5 ml of the acetoneous solution of the test compound is applied onto the surface of the plate in a Petri-dish. After the acetone has evaporated 5 μl of the larva suspension is applied onto each plate. After 72 hours the surviving and killed insects are counted.
# [4] = test system: cotton bug (Dysdercus fasciatus); experiment: Cotton bug test (topical application on II. stage larvae); conditions: for AJH effect: adultoid symptoms
# Method: (1) Cotton bug test A dilution series is prepared from the test compound with acetone and 0.2 μl of each dilution is topically applied onto the back part of larvae of the II. stage of growth with the aid of a Hamiltion syringe. The active ingredient is absorbed through the cuticula. The animals are kept in a large glass and fed with cotton grains and water. After adult shedding the surviving insects are observed for eventual adultoid symptoms, the egg-reproduction and the development of the ovules is evaluated too. (Remark: in the cotton bug test 50 insects are used).
# [5] = Caenorhabditis elegans, 24 h, read-out: Lethality
# [6] = 200 μg/ml, first test, read-out: mortality 1.
# [7] = 200 μg/ml, second test, read-out: mortality 2.
# [8] = 200 μg/ml, read-out: mortality Average
# [9] = 400 μg/ml, first test, read-out: mortality 1.
# [10] = 400 μg/ml, second test, read-out: mortality 2.
# [11] = 400 μg/ml, read-out: mortality Average
compound,measurement,setting,value
COc1ccc2c(c1OC)OC(C)(C)C=C2 [Compound 35],Remarks,Caenorhabditis elegans; 200 μg/ml,paralysation
same,Size of descendant population,Caenorhabditis elegans; 200 μg/ml,reduced
same,Remarks,Caenorhabditis elegans; 400 μg/ml,paralysation
same,Size of descendant population,Caenorhabditis elegans; 400 μg/ml,no descendants
same,mortality at 200 µg/mL,Caenorhabditis elegans; [5],67%
same,mortality at 400 µg/mL,Caenorhabditis elegans; [5],100%
same,Survival adult,[1],0%
same,Survival nymph,[1],12%
CCOc1cc(C)c2c(c1)OC(C)(C)C=C2 [Compound 38],Survival adult,[2]; 0.1%,19%
same,Survival nymph,[2]; 0.1%,19%
same,pest or weed control at 0.1 %,[2]; 0.1%,81%
same,Survival adult,[1],14.8%
same,Survival nymph,[1],40%
COc1c(OCC(C)C)ccc2c1OC(C)(C)C=C2 [Compound 54],Survival adult,[2]; 0.1%,7%
same,Survival nymph,[2]; 0.1%,7%
same,pest or weed control at 0.1 %,[2]; 0.1%,93%
CC(C)COc1ccc2c(c1)OC(C)(C)C=C2 [Compound 29],Survival adult,[1],28.2%
same,Survival nymph,[1],100%
C=CCOc1cc2c(cc1OC)C=CC(C)(C)O2 [Compound 7],Size of descendant population,Caenorhabditis elegans; 200 μg/ml,no descendants
same,Size of descendant population,Caenorhabditis elegans; 400 μg/ml,no descendants
same,mortality at 200 µg/mL,Caenorhabditis elegans; [5],90%
same,mortality at 400 µg/mL,Caenorhabditis elegans; [5],90%
CCOc1cc2c(cc1OCC)OC(C)(C)C=C2 [Compound 2],Nematocidal effect,[3]; 200 μg/ml,strong
same,Nematocidal effect,[3]; 400 μg/ml,strong
same,mortality at 200 µg/mL,[3]; [6],74%
same,mortality at 200 µg/mL,[3]; [7],69%
same,mortality at 200 µg/mL,[3]; [8],72%
same,mortality at 400 µg/mL,[3]; [9],83%
same,mortality at 400 µg/mL,[3]; [10],90%
same,mortality at 400 µg/mL,[3]; [11],87%
CC1(C)C=Cc2cc3c(cc2O1)OCO3 [Compound 4],Size of descendant population,Caenorhabditis elegans; 100 μg/ml,no descendants
same,Size of descendant population,Caenorhabditis elegans; 200 μg/ml,no descendants
same,Size of descendant population,Caenorhabditis elegans; 400 μg/ml,no descendants
same,mortality at 100 µg/mL,Caenorhabditis elegans; [5],100%
same,mortality at 200 µg/mL,Caenorhabditis elegans; [5],100%
same,mortality at 400 µg/mL,Caenorhabditis elegans; [5],100%
same,Nematocidal effect,[3]; 200 μg/ml,strong
same,Nematocidal effect,[3]; 400 μg/ml,strong
same,mortality at 200 µg/mL,[3]; [6],84%
same,mortality at 200 µg/mL,[3]; [7],69%
same,mortality at 200 µg/mL,[3]; [8],77%
same,mortality at 400 µg/mL,[3]; [9],96%
same,mortality at 400 µg/mL,[3]; [10],92%
same,mortality at 400 µg/mL,[3]; [11],94%
Cc1cc(OC(C)C)cc2c1C=CC(C)(C)O2 [Compound 40],Survival adult,[1],27.6%
same,Survival nymph,[1],50.9%
C#CCOc1ccc2c(c1)OC(C)(C)C=C2 [Compound 37],Remarks,Caenorhabditis elegans; 200 μg/ml,paralysation
same,Size of descendant population,Caenorhabditis elegans; 200 μg/ml,no descendants
same,Remarks,Caenorhabditis elegans; 400 μg/ml,paralysation
same,Size of descendant population,Caenorhabditis elegans; 400 μg/ml,no descendants
same,mortality at 200 µg/mL,Caenorhabditis elegans; [5],100%
same,mortality at 400 µg/mL,Caenorhabditis elegans; [5],100%
CCC(C)Oc1ccc2c(c1)OC(C)(C)C=C2 (stereo not shown) [Compound 28],Survival adult,[1],25.6%
same,Survival nymph,[1],115%
CCCOc1cc(OC)c2c(c1)OC(C)(C)C=C2 [Compound 46],Survival adult,[2]; 0.1%,12%
same,Survival nymph,[2]; 0.1%,12%
same,pest or weed control at 0.1 %,[2]; 0.1%,88%
same,Survival adult,[1],6.4%
same,Survival nymph,[1],9.1%
"CCC(C)Oc1cc(OC)c2c(c1)OC(C)(C)C=C2 (stereo not shown) [Compound 48, 5-methoxy-7-sec. butoxy-2,2-dimethyl-2H-chromene]",pest or weed control at 0.1 %,[2]; 0.1%,100%
CCC(C)Oc1cc2c(cc1OC)C=CC(C)(C)O2 (stereo not shown) [Compound 20],LD50,[4],0.4 μg/insect
same,AJH effect,[4],0.1 μg/insect
CCOc1ccc2c(c1OC)OC(C)(C)C=C2 [Compound 50],Size of descendant population,Caenorhabditis elegans; 200 μg/ml,reduced
same,Size of descendant population,Caenorhabditis elegans; 400 μg/ml,no descendants
same,Survival adult,[2]; 0.1%,24%
same,Survival nymph,[2]; 0.1%,24%
same,pest or weed control at 0.1 %,[2]; 0.1%,76%
same,Survival adult,[1],4.2%
same,Survival nymph,[1],5.4%
"CCC(C)Oc1ccc2c(c1OC)OC(C)(C)C=C2 (stereo not shown) [Compound 53, 7sec. butoxy-8-methoxy-2,2-dimethyl-2chromene]",Size of descendant population,Caenorhabditis elegans; 200 μg/ml,reduced
same,Size of descendant population,Caenorhabditis elegans; 400 μg/ml,reduced
same,pest or weed control at 0.1 %,[2]; 0.1%,100%
"COc1ccc2c(c1)OC(C)(C)C=C2 [Compound 23, 7-methoxy-2,2-dimethyl-2H-chromene, reference compound]",Size of descendant population,Caenorhabditis elegans; 200 μg/ml,reduced
same,Size of descendant population,Caenorhabditis elegans; 400 μg/ml,no descendants
same,Survival adult,[2]; 0.01%,50%
same,Survival nymph,[2]; 0.01%,59%
same,pest or weed control at 0.01 %,[2]; 0.01%,41%
same,Survival adult,[1],33.3%
same,Survival nymph,[1],100%
COc1cc2c(cc1OC(C)C)OC(C)(C)C=C2 [Compound 8],Size of descendant population,Caenorhabditis elegans; 200 μg/ml,reduced
same,Size of descendant population,Caenorhabditis elegans; 400 μg/ml,no descendants
same,mortality at 200 µg/mL,Caenorhabditis elegans; [5],70%
same,mortality at 400 µg/mL,Caenorhabditis elegans; [5],80%
same,LD50,[4],0.45 μg/insect
same,Sterilizing effect,[4],0.2 μg/insect
same,AJH effect,[4],1 μg/insect
COc1cc(OC(C)C)cc2c1C=CC(C)(C)O2 [Compound 47],Survival adult,[2]; 0.1%,9%
same,Survival nymph,[2]; 0.1%,13%
same,pest or weed control at 0.1 %,[2]; 0.1%,87%
Cc1cc(OC2CCCC2)cc2c1C=CC(C)(C)O2 [Compound 43],pest or weed control at 0.1 %,[2]; 0.1%,100%
same,Survival adult,[1],31.8%
same,Survival nymph,[1],52.7%
CCCCOc1cc2c(cc1OCCCC)OC(C)(C)C=C2 [Compound 14],Size of descendant population,Caenorhabditis elegans; 200 μg/ml,reduced
same,Size of descendant population,Caenorhabditis elegans; 400 μg/ml,reduced
same,mortality at 200 µg/mL,Caenorhabditis elegans; [5],30%
same,mortality at 400 µg/mL,Caenorhabditis elegans; [5],80%
COc1cc2c(cc1OCC(C)C)OC(C)(C)C=C2 [Compound 21],LD50,[4],0.4 μg/insect
COc1cc(OCC(C)C)cc2c1C=CC(C)(C)O2 [Compound 49],pest or weed control at 0.1 %,[2]; 0.1%,100%
same,Survival adult,[1],0%
same,Survival nymph,[1],0%
C#CCOc1cc(C)c2c(c1)OC(C)(C)C=C2 [Compound 44],Remarks,Caenorhabditis elegans; 200 μg/ml,paralysation
same,Size of descendant population,Caenorhabditis elegans; 200 μg/ml,some descendants
same,Remarks,Caenorhabditis elegans; 400 μg/ml,paralysation
same,Size of descendant population,Caenorhabditis elegans; 400 μg/ml,no descendants
same,Survival adult,[2]; 0.1%,17%
same,Survival nymph,[2]; 0.1%,17%
same,pest or weed control at 0.1 %,[2]; 0.1%,83%
same,Survival adult,[1],10.6%
same,Survival nymph,[1],50.9%
C=CCOc1cc2c(cc1OCC=C)OC(C)(C)C=C2 [Compound 5],Size of descendant population,Caenorhabditis elegans; 200 μg/ml,some descendants
same,Size of descendant population,Caenorhabditis elegans; 400 μg/ml,no descendants
same,Nematocidal effect,[3]; 400 μg/ml,medial
same,mortality at 200 µg/mL,[3]; [6],18%
same,mortality at 200 µg/mL,[3]; [7],29%
same,mortality at 200 µg/mL,[3]; [8],23%
same,mortality at 400 µg/mL,[3]; [9],45%
same,mortality at 400 µg/mL,[3]; [10],43%
same,mortality at 400 µg/mL,[3]; [11],44%
CCC(C)Oc1cc(C)c2c(c1)OC(C)(C)C=C2 (stereo not shown) [Compound 41],Survival adult,[2]; 0.1%,14%
same,Survival nymph,[2]; 0.1%,19%
same,pest or weed control at 0.1 %,[2]; 0.1%,11%
same,Survival adult,[1],12.5%
same,Survival nymph,[1],25.4%
CCCOc1ccc2c(c1)OC(C)(C)C=C2 [Compound 25],Survival adult,[2]; 0.01%,39%
same,Survival nymph,[2]; 0.01%,48%
same,pest or weed control at 0.01 %,[2]; 0.01%,52%
COc1c(OC(C)C)ccc2c1OC(C)(C)C=C2 [Compound 52],Size of descendant population,Caenorhabditis elegans; 200 μg/ml,reduced
same,Size of descendant population,Caenorhabditis elegans; 400 μg/ml,reduced
same,Survival adult,[2]; 0.1%,32%
same,Survival nymph,[2]; 0.1%,36%
same,pest or weed control at 0.1 %,[2]; 0.1%,64%
same,Survival adult,[1],0%
same,Survival nymph,[1],12%
CCOc1cc2c(cc1OC)OC(C)(C)C=C2 [Compound 34],Remarks,Caenorhabditis elegans; 200 μg/ml,paralysation
same,Size of descendant population,Caenorhabditis elegans; 200 μg/ml,reduced
same,Remarks,Caenorhabditis elegans; 400 μg/ml,paralysation
same,Size of descendant population,Caenorhabditis elegans; 400 μg/ml,some descendants
same,mortality at 200 µg/mL,Caenorhabditis elegans; [5],15%
same,mortality at 400 µg/mL,Caenorhabditis elegans; [5],23%
same,Survival adult,[1],12.8%
same,Survival nymph,[1],85%
CC(C)=CCOc1cc2c(cc1OCC=C(C)C)OC(C)(C)C=C2 [Compound 10],LD50,[4],0.6 μg/insect
